Laboratory results taken from ChEMBL document CHEMBL1143210, “2-Substituted 4-, 5-, and 6-[(1E)-3-oxo-3-phenylprop-1-en-1-yl]pyridazin-3(2H)-ones and 2-substituted 4,5-bis[(1E)-3-oxo-3-phenylprop-1-en-1-yl]pyridazin-3(2H)-ones as potent platelet aggregation inhibitors: design, synthesis, and SAR studies” (Bioorg Med Chem Lett, 2008).

test system: Blood; test: Inhibition of thrombin-induced platelet aggregation in human blood by turbidimetric method; type: functional, tissue-based

| SMILES | IC50 [µM] |
| --- | --- |
| CN1CC(/C=C/C(=O)c2ccccc2)=C(/C=C/C(=O)c2ccccc2)C=N1 | 6.15 |
| Cc1[nH]c(=O)c(C#N)cc1-c1ccncc1 [MILRINONE] | 4.7 |
| Cn1nccc(/C=C/C(=O)c2ccccc2)c1=O | 37.1 |
| O=C1C(CC[S+]([O-])c2ccccc2)C(=O)N(c2ccccc2)N1c1ccccc1 (centres undefined) [SULFINPYRAZONE] | 509 |
| O=C(/C=C/C1=C(/C=C/C(=O)c2ccccc2)CN(c2ccccc2)N=C1)c1ccccc1 | 1.98 |

The next lines start with the values.

| IC50 [µM] | SMILES |
| --- | --- |
| 3.3 | O=C(/C=C/c1cnn(-c2ccccc2)c(=O)c1)c1ccccc1 |
| 17.6 | O=C(/C=C/c1ccnn(-c2ccccc2)c1=O)c1ccccc1 |
| 12 | O=C(/C=C/c1ccc(=O)n(-c2ccccc2)n1)c1ccccc1 |
| 15.7 | Cn1ncc(/C=C/C(=O)c2ccccc2)cc1=O |
| 13.4 | Cn1nc(/C=C/C(=O)c2ccccc2)ccc1=O |
| 4.2 | O=C(/C=C/c1cnn(Cc2ccccc2)c(=O)c1)c1ccccc1 |
| 60 | O=C(/C=C/c1ccc(=O)n(Cc2ccccc2)n1)c1ccccc1 |
| 163 | O=C(/C=C/c1ccccc1)c1ccccc1 [CHALCONE] |

test system: Blood; test: Inhibition of thrombin-induced platelet aggregation in human blood at 100 uM by turbidimetric method; type: functional

| SMILES | inhibition at 100 µM [%] |
| --- | --- |
| O=C(/C=C/c1ccnn(Cc2ccccc2)c1=O)c1ccccc1 | 40 |
